Source: patent US20030166631A1, “Pharmaceutical compositions and methods for administering EP2 receptor selective agonists” (priority 2001, published 2003)

Tests used:
Male Sprague-Dawley rats = test: Rat periosteal injection model (local injection onto femur subperiosteum); assay type: in vivo; details: for BMC: right femur, DEXA
Description: Male Sprague-Dawley rats at 3 weeks of age were used. The rats were anesthetized with isoflurane inhalation (2-3 minutes) in a conduction chamber located in a fume hood. The right hindlimb of each rat was shaved and cleaned. A 26 G needle attached with a hamilton syringe pre-filled with testing solution was used for the local injection. The solution was injected onto the subperiosteum of the anterior, mid-diaphyseal region of the femur in a volume of 5 to 10 ul for various days. On day 15, the rats were sacrificed and the femurs were collected for analysis. Periosteal bone induction was assessed by using radiography, dual-energy X-ray absorptiometry (DEXA) and/or peripheral quantitative computed tomography (pQCT), and histomorphometry. (Michael E, Joyce, Anita B. Roberts, Michael B. Sporn, and Mark Bolander, “Transforming growth factor-β and the initiation of chondrogenesis and osteogenesis in the rat femur,” The Journal of Cell Biology 110:2195-2207 (1990)).
The right femurs of male Spray-Dawley rats were injected with either vehicle or test compound for 1, 3, 7, and 14 days, respectively. The solution was prepared using 2% glycine as vehicle at pH of approximately 7.8-7.9. All rats were sacrificed on day 15 and the right femurs were collected for analysis. […] The test compound was (3-(((4-tert-butyl-benzyl)-(pyridine-3-sulfonyl)-amino)-methyl)-phenoxy)-acetic acid, sodium salt;
The right femur of each rat was injected with test compound for 3, 7 and 14 days, respectively. The left femur of each rat was injected with vehicle to serve as its own control. The solution was prepared using 2% glycine as vehicle at pH of approximately 7.8-7.9. Drug concentration was 80 mg/ml. The injected volume was 5 μl/rat/d (0.4 mg/rat/d). All rats were sacrificed on day 15 and both right and left femurs were collected for analysis. […] The test compound was 7-{[2-(3,5-dichloro-phenoxy)-ethyl]-methanesulfonyl-amino}-heptanoic acid.

beagle male dogs = test: Ulnar segmental defect model, enhancement of bone healing in dog; assay type: in vivo
Description: It is clinically complex to heal segmental bone loss and non-union after fractures or reconstructive surgery. […] The following is a description of the ulnar segmental defect model used to evaluate bone healing in 11±1 kg beagle male dogs, 13 months old.
Beagle dogs were treated with antiparasitics one week before surgery and were given two doses of Baypamun (Bayer), 72 and 24 hours before the operation. Dogs were divided into four groups of eight animals.
Group A: 2 ml of phosphate buffered saline (PBS) was injected into the defect area filled with two helistat pre-cut sponges ([…]; 2.5×5 cm) 24, 48 and 72 hours following surgery.
Group B: 100 mg preparation of test compound was injected into the defect area filled with two helistat pre-cut sponges ([…]; 2.5×5 cm) 24 hours following surgery and for three consecutive days (24, 48 and 72 hours).
Group C: 100 mg preparation of test compound was injected into the defect area filled with two helistat pre-cut sponges ([…]; 2.5×5 cm) beginning 24 hours following surgery and daily thereafter for seven consecutive days.
Group D: 100 mg preparation of test compound was injected into the defect area filled with two helistat pre-cut sponges ([…]; 2.5×5 cm) 24 hours following surgery and daily thereafter for 14 days.
With animals under general anesthesia, the foreleg was prepped and draped in sterile fashion. A lateral incision approximately 10 cm in length was made and the ulna was exposed extraperiostally. Periosteum was cut and moved to the proximal and distal parts of the incision. Then 1.5 cm segmental defect was made in the midulna using a pendular saw. The radius and the remaining interosseal membrane were left intact. The defect site was irrigated with saline to remove bone debris. […] Both created bone ends were firmly stable and the radius served as a weight-bearing bone during the recovery process.
The site was then filled with the two helistat sponges as described above. In particular two Helistat sponges sized 2.5 times 5 cm were rolled to form a cylinder which was secured outside with fibrin net and two resorbable sutures. In that way subsequent dermal injections had larger areas of absorption. The soft tissues were meticulously closed in layers to aid the sponges. Injections were administered via dermal suture markers in such a way that the needle reached the opposing radius and then pulled back for approximately 5 mm. The total volume per injection was 2 ml consisting either of vehicle (PBS) or test compound in PBS. Following surgery animals were allowed full weight-bearing activity, water and food ad libitum. Radiographs of the forelimbs were obtained immediately following surgery and every two weeks thereafter until the termination of the study. Radiographs were graded on a 0 to 6 scale (Table A).
Dogs were sacrificed 12 weeks following surgery and the ulna was carefully dissected and fixed in 10% buffered formalin for histological analysis. As expected none of the control dogs re-bridged the defect confirming that the defect was a critical sized defect (Table B). Moreover, the non-union was pronounced permanent at the termination of the study since no significant progress in radiographs was observed between four and twelve weeks following surgery. In the 3-injections groups, none of the defects were re-bridged at the termination of the study. […] Radiographic scoring indicated a score between 2 and three for the dogs in this group.

[1] = tested on: metaphysis of the left tibia; details: daily intraosseous injections for 14 days; cited from earlier work
adult beagles = details: 0.2 mg in 0.5 ml injected into fracture sites twice a day for 10 days; cited from earlier work
beagles = details: 0.2 mg/kg in 10% ethanol into defect site twice a day for 10 days; cited from earlier work
dogs = details: local infusion for 3 weeks, 500 to 2000 μg per week; cited from earlier work
[2] = 14-injections group, eight dogs
[3] = Group D: 100 mg daily for 14 days, 12 weeks after surgery

CS(=O)(=O)N(CCCCCCC(=O)O)CCOc1cc(Cl)cc(Cl)c1 [7-{[2-(3,5-dichloro-phenoxy)-ethyl]-methanesulfonyl-amino}-heptanoic acid]
local bone formation by radiography (Male Sprague-Dawley rats; 3-day treatment, eight femurs, 80 mg/ml, 5 μl/rat/d (0.4 mg/rat/d), left femur vehicle control): did not show evidence for increase bone formation locally
femurs showing increased calcified area by radiography (Male Sprague-Dawley rats; 7-day treatment, 80 mg/ml, 5 μl/rat/d (0.4 mg/rat/d), left femur vehicle control): Two out of eight
femurs showing increased calcified area locally compared to controls by radiography (Male Sprague-Dawley rats; 14-day treatment, 80 mg/ml, 5 μl/rat/d (0.4 mg/rat/d), left femur vehicle control): All femurs (n=8)

CC(C)(C)c1ccc(CN(Cc2cccc(OCC(=O)[O-])c2)S(=O)(=O)c2cccnc2)cc1.[Na+] [CP, (3-(((4-tert-butyl-benzyl)-(pyridine-3-sulfonyl)-amino)-methyl)-phenoxy)-acetic acid, sodium salt]
defects re-bridged at termination of the study (beagle male dogs; 3-injections group): none
histological analysis of newly formed bone (beagle male dogs; 3-injections group): complete mineralization of the newly formed bone
new bone induction (osteoconduction and periosteal reaction) (beagle male dogs; 3-injections group): observed in all the dogs
bone formation in the defect area (beagle male dogs; 7-injections group): Both endosteal and periosteal bone formation was observed
dogs showing full re-bridgement (beagle male dogs; 7-injections group): none
histological analysis of newly formed bone (beagle male dogs; 7-injections group): fully mineralized
dogs showing full re-bridgement by x-rays and histology (beagle male dogs; 14-injections group): two of the eight
dogs with large amount of new bone formation in defect area but defect not completely filled (beagle male dogs; [2]): Three other dogs
dogs with relatively less bone formation, pronounced non-responders (beagle male dogs; [2]): Three dogs
Bridging/8 dogs (beagle male dogs; Group B: 100 mg, 3 injections, 12 weeks after surgery): 0/8
Bridging/8 dogs (medial healing) (beagle male dogs; Group C: 100 mg daily for 7 days, 12 weeks after surgery): 1/8 showed medial healing
Radiographic Grading/8 dogs (beagle male dogs; Group D: 100 mg daily for 14 days, 0 to 6 scale): 4-6
Bridging/8 dogs (good bridging) (beagle male dogs; [3]): 4/8
dogs showing almost complete healing (beagle male dogs; [3]): Three
BMC (Male Sprague-Dawley rats; 1 day of dosing, sacrifice day 15): 0.0469 ± 0.0030 g
BMC (Male Sprague-Dawley rats; 3 days of dosing, sacrifice day 15): 0.0446 ± 0.0064 g
BMC (Male Sprague-Dawley rats; 7 days of dosing, sacrifice day 15): 0.0485 ± 0.0054 g
BMC (Male Sprague-Dawley rats; 14 days of dosing, sacrifice day 15): 0.0533 ± 0.0044 g
excess calcified mass on anterior aspect of right femur, radiography (Male Sprague-Dawley rats; 14 days of treatment, sacrifice day 15): became significant
excess calcified mass on anterior aspect of right femur, radiography (Male Sprague-Dawley rats; injected for 7 days, sacrifice day 15): started to show excess calcified mass
periosteal bone formation (Male Sprague-Dawley rats; one- or three-day treatment, sacrifice day 15): did not result in periosteal bone formation
defined region bone area and bone mineral content (BMC) by DEXA compared to vehicle (Male Sprague-Dawley rats; vs vehicle-treated rats (Table I)): significantly increased

CCCCC[C@H](O)/C=C/[C@H]1[C@H](O)CC(=O)[C@@H]1C/C=C\CCCC(=O)O [PGE2, Prostaglandin E2]
trabecular bone in the metaphysis [1]: significant increase of trabecular bone

CCCCC[C@H](O)/C=C/[C@H]1[C@H](O)CC(=O)[C@@H]1CCCCCCC(=O)O [PGE1, prostaglandin E1]
bone matrix formation at fracture site (adult beagles): induced bone matrix formation on the periosteal envelope
periosteal and cortical endosteal bone formation (beagles): more periosteal and cortical endosteal bone formation
alveolar bone formation in the mandible (dogs): produced a dramatic, localized formation of alveolar bone
